According to the supplement of paper PMC10307832:

What was measured:
Assay in all cases: relative viability (nuclei count vs DMSO), 5 days (fraction); higher = more cells survive
[1] = compound: CC1(COc2ccc3c(c2)ncn3-c2ccc3cccc(N4CCC(N)CC4)c3n2)COC1 [Crenolanib] + CC(C)C[C@H](NC(=O)[C@H](Cc1ccccc1)NC(=O)c1cnccn1)B(O)O [Bortezomib] (partner 0.002 µM)
Outline: (§1)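 One day after seeding in 1536-well plates, lung cancer cell lines were dosed by pin tool. Dosing was either single-drug or a fixed anchor-drug dose plus five library-drug doses (not always all listed) in √10 steps. After 5 days, nuclei were stained in one fix-and-stain step and counted on 4× images, and relative viability is the nuclei count of treated wells over that of vehicle wells, given as the median of duplicate plates.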

[2] = compound: CC1(COc2ccc3c(c2)ncn3-c2ccc3cccc(N4CCC(N)CC4)c3n2)COC1 [Crenolanib] + CCNC(=O)c1noc(-c2cc(C(C)C)c(O)cc2O)c1-c1ccc(CN2CCOCC2)cc1 [Luminespib] (partner 0.01 µM)
Outline: as §1

[3] = compound: CC1(COc2ccc3c(c2)ncn3-c2ccc3cccc(N4CCC(N)CC4)c3n2)COC1 [Crenolanib] + C[C@@H](Oc1cc(-c2cnn(C3CCNCC3)c2)cnc1N)c1c(Cl)ccc(F)c1Cl [Crizotinib] (partner 1 µM)
Outline: as §1

[4] = compound: CC1(COc2ccc3c(c2)ncn3-c2ccc3cccc(N4CCC(N)CC4)c3n2)COC1 [Crenolanib] + O=C(CCCCCCC(=O)Nc1ccccc1)NO [Vorinostat] (partner 1 µM)
Outline: as §1

Question: How did the relative viability ([1]; first compound 0.01 µM) turn out when UMC-11 was run?
Answer: 0.811

Question: What about the relative viability ([1]; first compound 0.03162 µM) of the same cell line?
Answer: 0.753

Question: And the relative viability ([1]; first compound 0.1 µM)?
Answer: 0.703

Question: And the relative viability ([1]; first compound 0.3162 µM)?
Answer: 0.752

Question: What about the relative viability ([1]; first compound 1 µM) of the same cell line?
Answer: 0.757

Question: And the relative viability ([2]; first compound 0.01 µM)?
Answer: 1.06

Question: And the relative viability ([2]; first compound 0.03162 µM)?
Answer: 1.02

Question: What about the relative viability ([2]; first compound 0.1 µM) of the same cell line?
Answer: 1.02

Question: And the relative viability ([2]; first compound 0.3162 µM)?
Answer: 1.11

Question: What about the relative viability ([2]; first compound 1 µM) of the same cell line?
Answer: 1.07

Question: What about the relative viability ([3]; first compound 0.01 µM) of the same cell line?
Answer: 0.624

Question: What about the relative viability ([3]; first compound 0.03162 µM) of the same cell line?
Answer: 0.568

Question: And the relative viability ([3]; first compound 0.1 µM)?
Answer: 0.674

Question: And the relative viability ([3]; first compound 0.3162 µM)?
Answer: 0.804

Question: And the relative viability ([3]; first compound 1 µM)?
Answer: 0.606

Question: What about the relative viability ([4]; first compound 0.01 µM) of the same cell line?
Answer: 0.383

Question: What about the relative viability ([4]; first compound 0.03162 µM) of the same cell line?
Answer: 0.453

Question: What about the relative viability ([4]; first compound 0.1 µM) of the same cell line?
Answer: 0.389

Question: And the relative viability ([4]; first compound 0.3162 µM)?
Answer: 0.363

Question: What about the relative viability ([4]; first compound 1 µM) of the same cell line?
Answer: 0.374
